Results as given in the supplement of paper PMC13380429.

Columns and labels:
[1] = tested on: A549-ACE2 infected with SARS-CoV-2; assay: cell count relative to DMSO; higher = less toxic; conditions: 24 h
[2] = tested on: Caco-2; assay: cell viability relative to DMSO; higher = less toxic; conditions: 72 h
[3] = tested on: Calu-3; assay: as above; conditions: 72 h
[4] = tested on: HepG2; assay: as above; conditions: 72 h
[5] = tested on: U2OS; assay: as above; conditions: 72 h
[6] = tested on: Vero E6; assay: as above; conditions: 72 h
[7] = tested on: A549-ACE2 infected with SARS-CoV-2; assay: SARS-CoV-2 infection rate relative to DMSO; higher = more infection; conditions: 24 h
[8] = tested on: A549-ACE2; assay: drug-induced phospholipidosis relative to tamoxifen; higher = more phospholipidosis
[9] = tested on: A549-ACE2 infected with SARS-CoV-2; assay: morphology score (similarity to uninfected cells); higher = more like uninfected cells; conditions: 24 h
[10] = tested on: U2OS; assay: relative viability EC50 (midpoint between 100% and the lowest measured viability); higher = less toxic; conditions: 72 h
[11] = tested on: Vero E6; assay: as above; conditions: 72 h
[12] = tested on: Caco-2; assay: drug sensitivity score (DSS) for viability; higher = more toxic; extreme values may be limits of the assay; conditions: 72 h
[13] = tested on: Calu-3; assay: as above; conditions: 72 h
[14] = tested on: HepG2; assay: as above; conditions: 72 h
[15] = tested on: U2OS; assay: as above; conditions: 72 h
[16] = tested on: Vero E6; assay: as above; conditions: 72 h
[17] = tested on: Caco-2; assay: relative viability EC50 (midpoint between 100% and the lowest measured viability); higher = less toxic; conditions: 72 h
[18] = tested on: Calu-3; assay: as above; conditions: 72 h
[19] = tested on: HepG2; assay: as above; conditions: 72 h

CC(C)n1cnc2c(NCCc3ccc(O)cc3)nc(-c3csc4ccccc34)nc21 [stemregenin-1]
Conditions	SARS-CoV-2 infection rate, [7] [%]	cell count, [1] [%]	cell viability, [2] [%]	cell viability, [3] [%]	cell viability, [4] [%]	cell viability, [5] [%]	cell viability, [6] [%]	morphology score, [9]
1 nM	–	–	92.3	99.6	92.7	103	99.4	–
10 nM	–	–	104	109	91.9	101	101	–
100 nM	–	–	87.3	101	97.4	95.1	104	–
0.3 µM	93	101	–	–	–	–	–	0.34
1000 nM	–	–	99.3	80.4	91.6	96.3	100	–
3 µM	84	103	–	–	–	–	–	0.46
10 µM	60	117	–	–	–	–	–	0.84
10000 nM	–	–	54	54.3	70.7	80.7	85.7	–
30 µM	26	45	–	–	–	–	–	0

drug-induced phospholipidosis [%], [8]
Conditions	0.3 µM	0.833333 µM	3.33333 µM	6.66667 µM	10 µM	30 µM
24 h	6.01	1.64	8.25	15.8	28.5	16.7
48 h	9.44	5.9	8.13	14.7	21.9	–
72 h	7.3	7.32	13.4	21.2	27	–

Conditions	drug sensitivity score	relative viability EC50 [µM]
[10]	–	> 10
[11]	–	> 10
[12]	2.5	–
[13]	5	–
[14]	2.3	–
[15]	1	–
[16]	0.2	–

N#Cc1ccc(N2N=C3c4ccc(C(=O)O)cc4CC[C@@H]3[C@@H]2C2CCCC2)cc1Cl
Conditions	SARS-CoV-2 infection rate, [7] [%]	cell count, [1] [%]	cell viability, [2] [%]	cell viability, [3] [%]	cell viability, [4] [%]	cell viability, [5] [%]	cell viability, [6] [%]	morphology score, [9]
1 nM	–	–	92	101	93.1	97.1	96	–
10 nM	–	–	98.1	97.6	96.3	96.4	106	–
100 nM	–	–	105	95	114	99.4	90	–
0.3 µM	101	100	–	–	–	–	–	-0.02
1000 nM	–	–	95.1	92.5	95.5	97.7	98.5	–
3 µM	99	107	–	–	–	–	–	0.24
10 µM	98	96	–	–	–	–	–	-0.01
10000 nM	–	–	101	106	103	99.6	117	–
30 µM	75	97	–	–	–	–	–	0.57

Conditions	drug sensitivity score	relative viability EC50 [µM]
[10]	–	> 10
[11]	–	> 10
[12]	0	–
[13]	0	–
[14]	0	–
[15]	0	–
[16]	0	–
[17]	–	> 10
[18]	–	> 10
[19]	–	> 10

O=[N+]([O-])/C=C/c1ccc2c(c1)OCO2 [3,4-methylenedioxy-beta-nitrostyrene]
Conditions	SARS-CoV-2 infection rate, [7] [%]	cell count, [1] [%]	cell viability, [2] [%]	cell viability, [3] [%]	cell viability, [4] [%]	cell viability, [5] [%]	cell viability, [6] [%]	morphology score, [9]
1 nM	–	–	94.9	101	115	99.2	103	–
10 nM	–	–	107	105	97.9	97.5	101	–
100 nM	–	–	93.8	101	101	97.1	99.9	–
0.3 µM	95	106	–	–	–	–	–	0.14
1000 nM	–	–	104	100	95.9	100	96.9	–
3 µM	107	97	–	–	–	–	–	0.21
10 µM	39	49	–	–	–	–	–	0.48
10000 nM	–	–	72.3	95.5	91.3	43.7	84.3	–
30 µM	36	16	–	–	–	–	–	0.16

drug-induced phospholipidosis [%], [8]
Conditions	0.3 µM	0.833333 µM	3.33333 µM	6.66667 µM	30 µM
24 h	1.47	-0.82	0.27	3.08	-3.87
48 h	-0.23	-2.22	-2.44	-0.19	–
72 h	-0.171	-1.69	-1.41	-0.796	–

Conditions	drug sensitivity score	relative viability EC50 [µM]
[10]	–	3.2
[11]	–	> 10
[12]	0.9	–
[13]	0	–
[14]	0	–
[15]	3	–
[16]	0.6	–
[18]	–	> 10
[19]	–	> 10

Cc1csc(-c2nnc(Nc3ccc(Oc4ncccc4-c4ccnc(N)n4)cc3)c3ccccc23)c1 [AMG900]
Conditions	SARS-CoV-2 infection rate, [7] [%]	cell count, [1] [%]	cell viability, [2] [%]	cell viability, [3] [%]	cell viability, [4] [%]	cell viability, [5] [%]	cell viability, [6] [%]	morphology score, [9]
1 nM	–	–	94.6	104	101	93.9	100	–
10 nM	–	–	90.5	90.7	73.4	93.8	82.2	–
0.1 µM	97	77	–	–	–	–	–	0.14
100 nM	–	–	96.1	92	76.6	85.5	80.4	–
0.3 µM	93	73	–	–	–	–	–	0.2
1 µM	105	74	–	–	–	–	–	-0.05
1000 nM	–	–	77.3	77.8	53.6	82.3	81.7	–
3 µM	104	75	–	–	–	–	–	-0.08
10000 nM	–	–	65.5	81.4	2.2	68.2	75.8	–

drug-induced phospholipidosis [%], [8]
Conditions	0.3 µM	0.833333 µM	3.33333 µM	6.66667 µM	10 µM	30 µM
24 h	13.3	10.1	22.8	35.6	44.4	33.3
48 h	–	–	27.1	–	34.6	7.09

Conditions	drug sensitivity score	relative viability EC50 [µM]
[11]	–	> 10
[12]	4.2	–
[13]	3.3	–
[14]	13.9	–
[15]	4.3	–
[16]	8.5	–
[18]	–	> 10
[19]	–	0.54
